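Step 1: Grow cells in 96-well plates. Step 2: Expose to compound for 48 hours at 5 concentrations. Step 3: Interpolate endpoints linearly; if unreached, use highest concentration. TGI denotes the concentration required for complete inhibition of growth.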
Columns and labels:
Assay in all cases: growth of human tumour cells (NCI), 48 h
786-0 renal = test system: 786-0 renal
A549 NSCLC = test system: A549 NSCLC
HOP-92 NSCLC = test system: HOP-92 NSCLC
MDA-MB-231 breast = test system: MDA-MB-231 breast
OVCAR-5 ovarian = test system: OVCAR-5 ovarian
SF-268 CNS = test system: SF-268 CNS
SK-MEL-28 melanoma = test system: SK-MEL-28 melanoma
SK-MEL-5 melanoma = test system: SK-MEL-5 melanoma
SW-620 colon = test system: SW-620 colon
LOX IMVI melanoma = test system: LOX IMVI melanoma

Structure (SMILES)	TGI (786-0 renal) [µM]	TGI (A549 NSCLC) [µM]	TGI (HOP-92 NSCLC) [µM]	TGI (MDA-MB-231 breast) [µM]	TGI (OVCAR-5 ovarian) [µM]	TGI (SF-268 CNS) [µM]	TGI (SK-MEL-28 melanoma) [µM]	TGI (SK-MEL-5 melanoma) [µM]	TGI (SW-620 colon) [µM]	TGI (LOX IMVI melanoma) [µM]
N=C(N)c1ccc(N=Nc2c(O)c(C(=O)Nc3ccccc3)cc3ccccc23)cc1	30.2	> 100	33.8	22.4	> 62.4	55.4	> 100	> 49.6	> 100	–
CC1(O)CC23CC(O)C4(O)C(CC(O)C4(C)C)C(C)(O)C2CCC1C3O (stereo not given)	> 100	> 100	> 100	> 100	> 100	> 100	> 100	> 100	> 100	> 100
CC(C)(C)C(=O)C(N)C(=O)C(C)(C)C	> 100	> 100	> 100	> 100	> 100	> 100	> 100	> 100	> 100	> 100
Nc1ncnc2c1ncn2CCCNO	> 100	> 100	> 100	> 100	> 100	> 100	> 100	> 100	> 100	> 100
Cc1cc(S(=O)(=O)NC2=NCc3c(F)cccc3N2)c(S)cc1Cl	> 100	> 100	> 100	> 100	> 100	> 100	> 100	> 100	> 100	> 100
O=C(CCCCCCCCC(=O)N1C(=O)CC(=O)N(c2ccc(Cl)cc2)C1=S)N1C(=O)CC(=O)N(c2ccc(Cl)cc2)C1=S	> 100	> 100	> 100	> 100	> 100	> 100	> 100	> 100	> 100	> 100
CC(C)NC(=O)OCCN=C1c2ccccc2C(Br)C(Br)c2ccccc21 (stereo not given)	8.34	62.4	17	30.5	27.3	38.7	35.1	21.1	> 27.3	10.1
O=[N+]([O-])C(/C=C(\Cl)[N+](=O)[O-])=C(Nc1ccccc1)Nc1ccccc1	14.3	31.8	14.4	26.9	20.1	37.7	24.6	26.2	11	33.2
N#CC(c1cc(Cl)ncn1)c1nc2cc(C(F)(F)F)ccc2s1 (stereo not given)	13.4	> 100	5.92	33.9	34.3	19.4	37.4	26.2	17.8	11.8
CC[P+](c1ccccc1)(N(C)C)N(C)C	> 100	> 100	> 100	> 100	> 100	> 100	> 100	> 100	> 100	> 100
C=C(CCC(=O)N(CCc1c[nH]c2ccccc12)C(=O)c1ccccc1CSCC)C(=O)OC	> 100	> 100	> 100	> 100	> 100	> 100	> 100	> 100	> 100	> 100
N#Cc1cc2c(n(C3OC(CO)C(O)C(O)C3O)c1=S)CCC2 (stereo not given)	> 100	> 100	> 100	> 100	> 100	> 100	> 100	> 100	–	> 100
NCC1OC(OC2C(N)CC(N)C(O)C2OC2OC(CO)C(O)C2O)C(N)C(O)C1O (stereo not given)	> 100	> 100	> 100	> 100	> 100	> 100	> 100	> 100	> 100	> 100
CCCCCCCCCCCCCCCCOC[C@H](COC(c1ccccc1)(c1ccccc1)c1ccccc1)O[P+](=S)OC (stereo not given in full)	> 100	> 100	> 100	> 100	> 100	> 100	–	> 100	> 100	> 100
CC1=NN(c2cc(Cl)c(S(=O)(=O)O)cc2Cl)C2(C1)C(Cl)C(=O)N2c1nc2ccccc2s1 (stereo not given)	> 100	> 100	> 100	> 100	> 100	> 100	> 100	> 100	> 100	> 100
COc1ccc(C=C2C(C)=NN(c3cccc(Cl)c3)C23C(Cl)C(=O)N3c2nc3ccccc3s2)cc1 (stereo not given)	29.4	–	24.6	51.5	37.6	78.3	23.9	32.9	20.7	38.5
C[C@]12CC[C@H]3[C@@H](CCC4=C/C(=N/OCCN5CCCCC5)CC[C@@]43C)[C@@H]1CC[C@@H]2O	> 100	34.5	–	50.6	40.7	–	28	26.4	32.7	57.3
Cc1c(C)c2c(c(N)c1C#N)C(=O)N(NC(=S)Nc1ccccc1)C2=O	> 100	> 100	> 100	> 100	> 100	> 100	> 100	> 100	> 100	–
Cc1c(-c2ccccc2)oc(=O)c2ccccc12	51.2	> 100	38	36.5	80.9	45.1	37.3	33.8	–	40.4
CCn1c(-c2cc3ccccc3cc2OC(C)=O)n[nH]c1=S	> 100	–	> 100	80.4	> 100	> 100	> 100	38.2	> 100	> 100
COC1=C(OC)C(=O)C(Cc2c(-c3ccccc3)nc3sc(Cl)cn23)=C(C)C1=O	41.8	52	–	24.6	56.5	41.2	27	29.2	50.6	71.7

Source: PubChem BioAssay (NCI)
